Assays:
TGFβ pathway = assay: Immunoblot of p-Smad2 in stromal cells; assay type: cell-based, mouse; settings: FIG. 1A bottom panel
[1] = tested on: Lin− cells from WT and Fancd2−/− mice; assay: Lin− cell growth under mTGFβ; assay type: cell-based, mouse; settings: mTGFβ 1 ng/mL; FIG. 2B
Procedure: For mouse hematopoietic stem/progenitor cell culture, Lin^− cells were cultured in vitro in StemSpan SFEM media with 10 ng/mL SCF, 20 ng/mL IGF-2, 20 ng/mL TPO, 10 ng/mL heparin, and 10 ng/mL a-FGF. Half media was changed every three days. For human cord blood cells, CD34+ cells were isolated using CD34 microbead kit (Miltenyi Biotec). Cells were cultured in StemSpan SFEM media with 100 ng/mL hSCF, 100 ng/mL FLT3 ligand, 10 ng/mL TPO, 10 ng/mL IL-6. Cells were treated with 10 ug/mL 1D11 or 10 μM SD208.
To perform flow cytometry analysis, Lin^− cells were collected at day 2 and 5 post transduction and suspended in staining medium (PBS with 2% heat-inactivated calf serum), and incubated with PE-conjugated c-Kit and APC-conjugated Sca-1 antibodies were added to the cells for 30 min at 4° C. in the dark. Stem cell population (GFP^+Lin^−c-Kit^+Sca-1^+) was analyzed by FACS. All these antibodies were purchased from eBioscience.

Fancd2−/− stromal cells = assay: Survival of stromal cells in the presence of MMC; assay type: cell-based, mouse; settings: FIG. 1A
Procedure: (§1) For survival assays, cells were seeded at a density of 1×10^3 cells per well in 96-well plates. After 72 hours of culture in indicated concentrations of MMC or post exposure of acetaldehyde, viability was assessed using CellTiterGlo reagent (Promega). In order to assess clonogenicity, cells were seeded at a low density (500-1000 cells per well) in 6-well plates and allowed to form colonies. The cells were then fixed in methanol/20% acetic acid and stained with 1% crystal violet. Colony formation was assessed by solubilizing crystal violet stain with methanol and quantifying UV absorbance for each condition.
as §1, with “3-6 days” for “72 hours”, “Colonies were counted after” for “Colony formation was assessed by solubilizing”, “staining.” for “stain with methanol and quantifying UV absorbance for each condition.”

U2OS cells = assay: Homologous recombination assay with DR-GFP reporter; assay type: cell-based; settings: 10 μM B02, FIG. 8D
Procedure: (§2) (A) Experimental scheme for inhibition of TGF-β Pathway in mice. WT or Fancd2−/− mice were treated with isotype or 1D11 antibody (10 mg/kg) for 48h, and bone marrow HSCs were sorted for gene expression profile and cell cycle analysis. […] Cell cycle analysis of HSCs from WT or Fancd2−/− mice treated with isotype or 1D11 antibody for 48h is shown. Error bars represent mean±s.e.m. (n=4 mice per group). […] Homologous recombination assay was measured in U2OS cells with DR-GFP reporter after treatment with […] RI-1 and 10 μM B02. The representative of two independent experiments is presented; error bars represent mean±s.e.m. […] GM6914 (FA-A) cells or corrected GM6914+FANCA cells were treated with 1 μM MMC and 10 μM inhibitors for 6h before immunofluorescence analysis. Representative images (E) and quantification (F) of RAD51 foci are shown. […] HSPCs from WT or Fancd2−/− mice were treated with B02 (10 μM) or RI-1 ([…]) in vitro for five days and survival was determined. […] HSPCs from WT or Fancd2−/− mice were exposed to 1D11 (10 μg/mL) and RAD51 inhibitors (10 μM) for 30 min followed by exposure to acetaldehyde for 4 hrs. The cells were then washed and cultured in presence of 1D11 and RAD51 inhibitors for 7-9 days, and hematopoietic colonies were counted.

GM6914 (FA-A) cells = assay: RAD51 foci formation by immunofluorescence; assay type: cell-based; settings: 1 μM MMC and 10 μM inhibitors for 6h; FIG. 8E, F
Procedure: as §2
Cells were grown on coverslip for 24 hours before treated with MMC. […]

[2] = tested on: HSPCs from WT or Fancd2−/− mice; assay: Cytotoxicity of RAD51 inhibitors in HSPCs; assay type: cell-based, mouse; settings: B02 (10 μM) or RI-1 (1004) in vitro for five days; FIG. 8G
Procedure: as §2

Fc1ccc(Cl)cc1-c1nc(Nc2ccncc2)c2nccnc2n1 [SD208]
activation of the TGFβ pathway (p-Smad2) in murine stromal cells (TGFβ pathway): inhibition of TGFβ signaling
suppressive effect of exogenous mTGFβ on Lin− cell growth [1]: rescued the inhibitory effect
MMC sensitivity / resistance (survival) of Fancd2−/− stromal cells (Fancd2−/− stromal cells): restores MMC resistance

O=c1c2ccccc2nc(/C=C/c2cccnc2)n1Cc1ccccc1 [B02]
HR efficiency (DR-GFP recombination) (U2OS cells): significantly decrease HR efficiency
RAD51 foci formation (GM6914 (FA-A) cells): efficiently block RAD51 foci formation
cytotoxicity in HSPCs (survival) [2]: do not show cytotoxicity

O=C1C(Cl)=C(N2CCOCC2)C(=O)N1c1ccc(Cl)c(Cl)c1 [RI-1]
HR efficiency (DR-GFP recombination) (U2OS cells): significantly decrease HR efficiency
RAD51 foci formation (GM6914 (FA-A) cells): efficiently block RAD51 foci formation
cytotoxicity in HSPCs (survival) [2]: do not show cytotoxicity

Source: patent publication US10526402B2, “Anti-TGF-beta antibody for the treatment of fanconi anemia” (Dana-Farber Cancer Institute, Inc., priority 2015, dated 2020)
